Assay results from PubChem BioAssay AID248 (DTP/NCI, 2004).
Where “and” joins values, the source holds several entries; their conditions need not be identical. Identical values can stand only once. Toxic doses and inconclusive results are not listed.

System: L1210 leukemia ip in BDF1 mice, survival T/C
Assay: NCI In Vivo Anticancer Drug Screen. Data for tumor model L1210 Leukemia (intraperitoneal) in B6D2F1 (BDF1) mice
Conditions: endpoint: mean survival time, higher = longer survival
How it was run: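 Mice bearing the transplanted tumor received compound or vehicle. Survival of the treated group was divided by that of the vehicle-treated control group to give the ratio.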

[1] = dose: 50.0 mg/kg/injection, schedule: Q01DX009 (ip), vehicle: Klucel (hydroxypropylcellulose) (HPC)
[2] = dose: 100.0 mg/kg/injection, schedule: Q01DX009 (ip), vehicle: Klucel (hydroxypropylcellulose) (HPC)
[3] = dose: 100.0 mg/kg/injection, schedule: Q04DX003 (ip), vehicle: Klucel (hydroxypropylcellulose) (HPC)
[4] = dose: 200.0 mg/kg/injection, schedule: Q01DX009 (ip), vehicle: Klucel (hydroxypropylcellulose) (HPC)
[5] = dose: 50.0 mg/kg/injection, schedule: Q04DX003 (ip), vehicle: saline with Tween-80

With `c1ccc(C[P+](c2ccccc2)(c2ccccc2)c2ccccc2)cc1` the T/C (dose: 3.13 mg/kg/injection, schedule: Q01DX009 (ip), vehicle: Klucel (hydroxypropylcellulose) (HPC)) was 106 % of control, the T/C (dose: 5.0 mg/kg/injection, schedule: Q01DX001 (ip), vehicle: saline with Tween-80) was 98 % of control and the T/C (dose: 5.0 mg/kg/injection, schedule: Q01DX001 (ip), vehicle: saline) was 105 % of control. For the same molecule, the T/C (dose: 5.0 mg/kg/injection, schedule: Q01DX009 (ip), vehicle: saline with Tween-80) was 95 % of control, the T/C (dose: 6.25 mg/kg/injection, schedule: Q01DX009 (ip), vehicle: Klucel (hydroxypropylcellulose) (HPC)) was 102 % of control and 95 % of control and the T/C (dose: 10.0 mg/kg/injection, schedule: Q01DX001 (ip), vehicle: saline with Tween-80) was 92 % of control. For the same molecule, the T/C (dose: 10.0 mg/kg/injection, schedule: Q01DX001 (ip), vehicle: saline) was 100 % of control, the T/C (dose: 10.0 mg/kg/injection, schedule: Q01DX009 (ip), vehicle: saline with Tween-80) was 87 % of control and the T/C (dose: 12.5 mg/kg/injection, schedule: Q01DX009 (ip), vehicle: Klucel (hydroxypropylcellulose) (HPC)) was 107 % of control and 96 % of control and 110 % of control. For the same molecule, the T/C (dose: 12.5 mg/kg/injection, schedule: Q04DX003 (ip), vehicle: Klucel (hydroxypropylcellulose) (HPC)) was 102 % of control, the T/C (dose: 20.0 mg/kg/injection, schedule: Q01DX001 (ip), vehicle: saline with Tween-80) was 90 % of control and the T/C (dose: 20.0 mg/kg/injection, schedule: Q01DX001 (ip), vehicle: saline) was 96 % of control. The T/C (dose: 25.0 mg/kg/injection, schedule: Q01DX009 (ip), vehicle: Klucel (hydroxypropylcellulose) (HPC)) was 89 % of control, the T/C (dose: 25.0 mg/kg/injection, schedule: Q04DX003 (ip), vehicle: Klucel (hydroxypropylcellulose) (HPC)) was 102 % of control and the T/C (dose: 40.0 mg/kg/injection, schedule: Q01DX001 (ip), vehicle: saline) was 105 % of control.
With `CCOc1ccccc1NC(=O)c1ccc(Cl)cc1Cl` the T/C [1] was 92 % of control, the T/C [2] was 92 % of control and the T/C [3] was 89 % of control. The T/C [4] was 86 % of control.
For `CCCCCC(=O)CC(=O)c1cccs1`, the T/C (dose: 200.0 mg/kg/injection, schedule: Q01DX Z (ip), vehicle: other) was 100 % of control and the T/C (dose: 400.0 mg/kg/injection, schedule: Q01DX Z (ip), vehicle: other) was 103 % of control.
For `O=NN(CCCl)C(=O)N[C@H]1CCCC[C@H]1Cl`, the T/C (dose: 12.0 mg/kg/injection, schedule: Q01DX001 (ip), vehicle: carboxymethylcellulose (CMC)) was 108 % of control, the T/C (dose: 16.0 mg/kg/injection, schedule: Q01DX001 (ip), vehicle: carboxymethylcellulose (CMC)) was 175 % of control and the T/C (dose: 31.0 mg/kg/injection, schedule: Q01DX001 (ip), vehicle: carboxymethylcellulose (CMC)) was 180 % of control. The T/C (dose: 36.0 mg/kg/injection, schedule: Q01DX001 (ip), vehicle: carboxymethylcellulose (CMC)) was 177 % of control, the T/C (dose: 40.0 mg/kg/injection, schedule: Q01DX001 (ip), vehicle: carboxymethylcellulose (CMC)) was 168 % of control and the T/C (dose: 54.0 mg/kg/injection, schedule: Q01DX001 (ip), vehicle: carboxymethylcellulose (CMC)) was 289 % of control. The T/C (dose: 62.0 mg/kg/injection, schedule: Q01DX001 (ip), vehicle: carboxymethylcellulose (CMC)) was 218 % of control and 304 % of control, the T/C (dose: 72.0 mg/kg/injection, schedule: Q01DX001 (ip), vehicle: carboxymethylcellulose (CMC)) was 289 % of control and the T/C (dose: 90.0 mg/kg/injection, schedule: Q01DX001 (ip), vehicle: carboxymethylcellulose (CMC)) was 295 % of control. For the same molecule, the T/C (dose: 93.0 mg/kg/injection, schedule: Q01DX001 (ip), vehicle: carboxymethylcellulose (CMC)) was 177 % of control, the T/C (dose: 108.0 mg/kg/injection, schedule: Q01DX001 (ip), vehicle: carboxymethylcellulose (CMC)) was 307 % of control and the T/C (dose: 125.0 mg/kg/injection, schedule: Q01DX001 (ip), vehicle: carboxymethylcellulose (CMC)) was 175 % of control. For the same molecule, the T/C (dose: 135.0 mg/kg/injection, schedule: Q01DX001 (ip), vehicle: carboxymethylcellulose (CMC)) was 306 % of control, the T/C (dose: 187.0 mg/kg/injection, schedule: Q01DX001 (ip), vehicle: carboxymethylcellulose (CMC)) was 107 % of control and the T/C (dose: 207.0 mg/kg/injection, schedule: Q01DX001 (ip), vehicle: carboxymethylcellulose (CMC)) was 242 % of control.
`CCCCCCCCCCOC(CN)C(Cl)(Cl)Cl` (stereo not given) was tested, and the T/C (dose: 12.5 mg/kg/injection, schedule: Q01DX009 (ip), vehicle: saline with Tween-80) was 93 % of control, the T/C (dose: 12.5 mg/kg/injection, schedule: Q04DX003 (ip), vehicle: saline with Tween-80) was 98 % of control and the T/C (dose: 25.0 mg/kg/injection, schedule: Q01DX009 (ip), vehicle: saline with Tween-80) was 97 % of control. For the same molecule, the T/C (dose: 25.0 mg/kg/injection, schedule: Q04DX003 (ip), vehicle: saline with Tween-80) was 101 % of control and the T/C [5] was 103 % of control.
`Cc1ccc(S(=O)(=O)NC(=O)OC/C=C/c2ccccc2)cc1` was tested, and the T/C (dose: 100.0 mg/kg/injection, schedule: Q01DX009 (ip), vehicle: alcohol) was 96 % of control, the T/C (dose: 200.0 mg/kg/injection, schedule: Q01DX009 (ip), vehicle: alcohol) was 94 % of control and the T/C (dose: 400.0 mg/kg/injection, schedule: Q01DX009 (ip), vehicle: alcohol) was 110 % of control.
For `N#CC(C(=O)c1ccccc1)c1cccc2ccccc12` (stereo not given), the T/C [1] was 101 % of control, the T/C [2] was 95 % of control and the T/C [3] was 95 % of control. For the same molecule, the T/C [4] was 103 % of control, the T/C (dose: 200.0 mg/kg/injection, schedule: Q04DX003 (ip), vehicle: Klucel (hydroxypropylcellulose) (HPC)) was 91 % of control and the T/C (dose: 400.0 mg/kg/injection, schedule: Q04DX003 (ip), vehicle: Klucel (hydroxypropylcellulose) (HPC)) was 91 % of control.
In the case of `CC12C(=O)c3ccccc3C(=O)C1C1CCCCC1=C1CCCCC12` (stereo not given), the T/C (dose: 100.0 mg/kg/injection, schedule: Q04DX002 (ip), vehicle: Klucel (hydroxypropylcellulose) (HPC)) is reported as 93 % of control, the T/C (dose: 200.0 mg/kg/injection, schedule: Q04DX002 (ip), vehicle: Klucel (hydroxypropylcellulose) (HPC)) is reported as 93 % of control and the T/C (dose: 400.0 mg/kg/injection, schedule: Q04DX002 (ip), vehicle: Klucel (hydroxypropylcellulose) (HPC)) is reported as 101 % of control.
In the case of `CCN(CC)c1ccc(C(=O)c2ccc(N(CC)CC)cc2)cc1`, the T/C (dose: 15.0 mg/kg/injection, schedule: Q01DX Z (ip), vehicle: carboxymethylcellulose (CMC)) is reported as 88 % of control, the T/C (dose: 30.0 mg/kg/injection, schedule: Q01DX Z (ip), vehicle: carboxymethylcellulose (CMC)) is reported as 92 % of control and the T/C (dose: 60.0 mg/kg/injection, schedule: Q01DX Z (ip), vehicle: carboxymethylcellulose (CMC)) is reported as 92 % of control and 95 % of control. The T/C (dose: 120.0 mg/kg/injection, schedule: Q01DX Z (ip), vehicle: carboxymethylcellulose (CMC)) was 94 % of control and 100 % of control, the T/C (dose: 240.0 mg/kg/injection, schedule: Q01DX Z (ip), vehicle: carboxymethylcellulose (CMC)) was 100 % of control and the T/C (dose: 480.0 mg/kg/injection, schedule: Q01DX Z (ip), vehicle: carboxymethylcellulose (CMC)) was 118 % of control.
With `CC(=O)Nc1cc(Cl)cc2c1-c1ccc(Cl)cc1C2N(C)C` (stereo not given) the T/C (dose: 50.0 mg/kg/injection, schedule: Q01DX001 (ip), vehicle: carboxymethylcellulose (CMC)) was 98 % of control, the T/C (dose: 100.0 mg/kg/injection, schedule: Q01DX001 (ip), vehicle: carboxymethylcellulose (CMC)) was 90 % of control and the T/C (dose: 200.0 mg/kg/injection, schedule: Q01DX001 (ip), vehicle: carboxymethylcellulose (CMC)) was 106 % of control. The T/C (dose: 400.0 mg/kg/injection, schedule: Q01DX001 (ip), vehicle: carboxymethylcellulose (CMC)) was 98 % of control.
In the case of `COc1ccc2c(c1)c1c(C)c3cnccc3c(C)c1n2CCCN1C(=O)c2ccccc2C1=O`, the T/C [5] is reported as 94 % of control, the T/C (dose: 100.0 mg/kg/injection, schedule: Q01DX009 (ip), vehicle: saline with Tween-80) is reported as 96 % of control and the T/C (dose: 100.0 mg/kg/injection, schedule: Q04DX003 (ip), vehicle: saline with Tween-80) is reported as 92 % of control. The T/C (dose: 200.0 mg/kg/injection, schedule: Q01DX009 (ip), vehicle: saline with Tween-80) was 101 % of control, the T/C (dose: 200.0 mg/kg/injection, schedule: Q04DX003 (ip), vehicle: saline with Tween-80) was 93 % of control and the T/C (dose: 400.0 mg/kg/injection, schedule: Q01DX001 (oral), vehicle: saline with Tween-80) was 110 % of control. For the same molecule, the T/C (dose: 400.0 mg/kg/injection, schedule: Q01DX009 (ip), vehicle: saline with Tween-80) was 101 % of control, the T/C (dose: 400.0 mg/kg/injection, schedule: Q04DX003 (ip), vehicle: saline with Tween-80) was 94 % of control and the T/C (dose: 800.0 mg/kg/injection, schedule: Q01DX001 (oral), vehicle: saline with Tween-80) was 108 % of control. The T/C (dose: 1600.0 mg/kg/injection, schedule: Q01DX001 (oral), vehicle: saline with Tween-80) was 112 % of control.
